Assay results taken from patent USRE43712E1, “Methods for assaying for antidepressant therapy markers” (The Board of Trustees of the Uniersity of Illinois, priority 2000, dated 2012).
Marks after values point to notes of the source that are not given here.

Columns and labels:
Type in all cases: cell-based
[1] = test system: Gsα; test: Content of G protein (Gsα) in C6-2B glioma membranes after antidepressant treatment, quantitative immunoblot
Method: (§1) C6-2B cells (between passages 20 and 40) were grown in 175-cm^2 flasks in Dulbecco's modified Eagle medium, 4.5 g of glucose/L, 10% bovine serum, in a 10% CO2 atmosphere, at 37° C. for 3 days after splitting. […] Male Sprague-Dawley rats weighing 150-200 g were fed ad libitum and maintained in a 12-h light/dark cycle. […] 36:803-838, 1989]. […] Rat cerebral cortex membranes were prepared according to the method of Rasenick et al. [Nature, 294:560-562; 1981].
(§2) Rat cortex membrane, C6-2B cell membranes, or Triton extracts of each membrane preparation were subjected to SDS-PAGE followed by electrotransfer to polyvinylidene difluoride (PVDF) membrane. The PVDF membrane was incubated with a phosphate-buffered saline/Tween 20 Buffer (140 mM NaCl, […]. 0.1% Tween 20, pH 7.4) and 3% bovine serum albumin. The membrane was then incubated with polyclonal rabbit antisera against the various G protein subunits [RM (Gsα) or 116 (Gi1, Gi2, Gi3α)] at a 1:25,000 (RM) or 1:5,000 (116) dilution (see below for source of antibodies). […] Immunoreactivity was detected with an enhanced chemiluminescence (ECL) western blot detection system (Amersham) in accord with the manufacturer's instructions. The developed autoradiographs were analyzed by densitometry.
Purified recombinant GsαL (long form of Gsα; 1-10 ng/lane) was subjected to SDS-PAGE and transferred to PVDF membranes. The blots were incubated with antibody against Gsα (RM) and processed by ECL. Films were analyzed on a Molecular Dynamics densitometer, and the volume of each band was quantified and used to make a standard curve.
Experiments were conducted to determine whether Gsα is quantitatively altered by antidepressant therapy. For quantification of Gsα in C6-2B membrane, a standard curve was created using purified recombinant […]. Pure Gsα (1-20 ng/well) was subjected to SDS-PAGE and transferred to a PVDF membrane, Gsα was immunodetected by antisera against the as subunit of G protein.
To estimate the effect of antidepressant treatment on the amount of Gsα in C6-2B membranes, equal amounts (10 μg) of C6-2B glioma membrane proteins in control and chronically (3 days) antidepressant-treated groups were subjected to SDS-PAGE. Gsα was immunodetected by antisera against the αs subunit of G protein.

[2] = test system: Gsα; test: Sequential detergent extraction (Triton X-100 / Triton X-114) of Gsα from C6-2B glioma membranes; settings: C6-2B cells; for GsαL in Remainder, % of corresponding value in control group / GsαL in Triton X-100 extract, % of corresponding value in control group / GsαL in Triton X-114 extract, % of corresponding value in control group / GsαS in Remainder, % of corresponding value in control group / GsαS in Triton X-100 extract, % of corresponding value in control group / GsαS in Triton X-114 extract, % of corresponding value in control group: mean ± SEM of 4-5 experiments
Method: as §1
Membrane proteins were extracted sequentially from C6-2B or rat synaptic membranes as described [Yan et al., J. Neurochem., 66:1489-1495; 1996]. These membranes were stirred on ice in HEPES (15 mM, pH 7.4) containing 1% Triton X-100 for 60 min followed by centrifugation at 100,000 g for 60 min at 4° C. The supernatant was reserved (Triton X-100 extract), and the resulting pellet was resuspended in Tris (15 mM, pH 7.4) containing 1.4% Triton X-114 and 150 mM NaCl. The solution was stirred for 60 min at 4° C. and centrifuged for 30 min at 100,000 g in the cold. The supernatant was saved (Triton X-114 extract). These supernatants and remaining pellet (remainder) were subjected to sodium dodecyl sulfate (SDS)-polyacrylamide gel electophoresis (PAGE) using 10% gels. All of the extraction buffers contained 1 mM PMSF and 1 mM EGTA.
as §2
A membrane-enriched fraction was prepared (see Example 1), and membrane proteins were extracted sequentially with Triton X-100 (Tx 100) and Triton X-114 (Tx 114). Equal amounts of these extracts were subjected to SDS-PAGE and transferred to PVDF membrane. The long and short forms of Gsα (GsαL and GsαS) from different fractions were identified by immunodetection.
Experiments were conducted according to the method set forth in Example 1 to assess the effects of different antidepressants on the detergent extraction of Gsα from C6-2B glioma cells.
The ratios of the percentage of Gsα extracted by the two detergents in the treatment versus control groups were compared and are set forth in Table 2 as percentage of control (i.e., each Triton X-100 extract was compared with the untreated Triton X-100 extract; the same was done for Triton X-114 extracts as well as the remainder).

[3] = test system: Gsα; test: Cellular localization of Gsα in C6-2B cells, immunofluorescence laser scanning confocal microscopy; settings: 10 μM, 3 days
Method: C6-2B cells (between passages 30 and 50) were plated onto coverslips and allowed to attach overnight in Dulbecco's modified Eagle's medium. 4.5 g/l glucose, 10% bovine serum, and 100 μg/ml penicillin and streptomycin at 37° C. in a humidified 10% CO2 atmosphere. […] Therefore, the latter treatment paradigm was used in these experiments because it was easier to maintain the cell cultures for 3 days. […] The culture media and drug were changed daily. […] After the treatment duration, the cells were incubated in drug-free media for 45 to 60 minutes before fixation.
After treatment, cells were washed once with phosphate-buffered saline (PBS, […] NaCl, 2.6 mM KCl, 5.4 mM NaαPO4 7H2O, pH 7.4) and fixed with ice-cold methanol for 10 minutes. Cells were then washed three times with PBS followed by 2 h of blocking in 5% normal goat serum/0.2% fish skin gelatin in PBS. Primary antibody was added for 1.5 h, Gsα/RM1 (PerkinElmer Life Sciences, Boston, Mass.) 1:50 and Goα (Santa Cruz Biotechnology, Santa Cruz, Calif.) 2 μg/ml, followed by three washes with PBS. Oregon Green-labeled secondary antibody (Molecular Probes, Eugene, Oreg.) was added at a concentration of 8 μg/ml for 1 h followed by three PBS washes. The coverslips were mounted onto slides with Vectashield (Vector Laboratories. Burlingame, Calif.) containing diamidino-2-phenylindole as a mounting medium. Images were acquired using a Zeiss LSM510 laser-scanning confocal microscope (Carl Zeiss Inc., Thornwood, N.Y.). A single 488-nm beam from an argon/krypton laser was used for excitation of the Oregon Green. Differential interference contrast images were also acquired. Five experiments were performed and coverslips were examined. Approximately 2100 cells from control and desipramine-treated coverslips were counted by two investigators blind to the experimental conditions over the course of the five experiments.
The cellular distribution of Gsα was quantified in confocal imaged C6-2B cells using NIH-Image software (http://rsbinfonihpov/nih-image) as describe previously [Southwell et al., Cell Tissue Res., 292:37-45, 1998; Jenkinson et al., Br. J. Pharmacol., 126:131-136, 1999]. Images of 9×1 μm optical, planar sections taken from four randomly selected control and four randomly selected desipramine-treated cells were captured and the middle five sections from each cell were quantified. Total cellular Gsα fluorescence was measured by counting the number of pixels with intensity above threshold (determined by minimum intensity above background in this case 50 pixels). The areas of intensity were numbered and divided visually into those localized to the cell body and those localized to the processes and process tips. The total from each region was divided by the total cell pixel intensity and expressed as a percentage of the total. This was done for each section of each cell and the sections were averaged per cell to give an average percentage total per cell.
In a separate investigation, seven sets of 300 cells each from control group and desipramine-treated cells from five experiments were counted to determine the primary localization (processes and process tips or cell body) of Gsα within these cells. The majority of the cells stained positively for Gsα throughout the entire cell, but there was usually an enhancement in one of these regions. […] The counts are expressed as the ratio of process and process tip localization/cell body localization.
Studies were conducted to determine whether a shift in cellular localization of Gsα occurred in C6-2B cells subjected to antidepressants.
Twenty-one hundred cells from each group (control versus desipramine-treated) over a series of five experiments were examined to quantify the extent of the antidepressant effect. […] Abnormal cells or those not displaying processes were not included in the cell count. Cells (300-450) were counted per experiment and the ratio of category A cells to category B cells for each group is shown in FIG. 8. […]

[4] = test system: Gsα; test: Gsα in Triton-insoluble, caveolin-enriched versus Triton-soluble fraction of C6-2B cells (sucrose density gradient, immunoblot); settings: chronic treatment, FIG. 3C
Method: as §2

[5] = C6-2B membranes, 10 μM drug for 3 days, mean ± SEM of 4-5 experiments

SMILES | Quantity of G proteins in membrane, treated versus control ([1]; C6-2B cells, 10 μM, 3 days, p>0.05) | G protein amount, Total [1, 5] | G protein amount, αsL [1, 5] | G protein amount, αsS [1, 5] | GsαL in the Triton X-114 fraction versus control group ([2]; 10 μM, 3 days, FIG. 1) | GsαL in Remainder, % of corresponding value in control group ([2]; 10 μM, 3 days) | GsαL in Triton X-100 extract, % of corresponding value in control group ([2]; 10 μM, 3 days) | GsαL in Triton X-114 extract, % of corresponding value in control group ([2]; 10 μM, 3 days) | GsαS in Remainder, % of corresponding value in control group ([2]; 10 μM, 3 days) | GsαS in Triton X-100 extract, % of corresponding value in control group ([2]; 10 μM, 3 days) | GsαS in Triton X-114 extract, % of corresponding value in control group ([2]; 10 μM, 3 days) | Gsα immunofluorescence in cell processes and process tips [3] | Cells displaying intense Gsα staining at the process tips (and processes) ([3]; control 64%) | Decrease of the amount of Gsα in the caveolin-enriched Triton-insoluble fraction, normalized to equal caveolin [4] | Shift of Gsα to the less hydrophobic Triton X-100 fraction [2]
CN(C)CCC=C1c2ccccc2CCc2ccccc21 [Amitriptyline, amitriptyline] | no significant differences | 13.10 ± 0.34 ng/10 ug of membrane protein | 8.13 ± 0.17 ng/10 ug of membrane protein | 4.98 ± 0.21 ng/10 ug of membrane protein | significantly lower | 83.4 ± 14.5% | 120.3 ± 3.7^b % | 84.5 ± 0.8^b % | 82.6 ± 5.1^a % | 140.3 ± 9.3^b % | 92.7 ± 3.8% |  |  |  | 
CN(C)CCCN1c2ccccc2Sc2ccc(Cl)cc21 [Chlorpromazine, chlorpromazine] |  |  |  |  |  | 83.8 ± 22.0% | 107.4 ± 8.3% | 105.7 ± 6.5% | 100.4 ± 31.6% | 113.4 ± 10.7% | 102.2 ± 15.6% | uniform distribution of Gsα similar to control | 68% | no more than 25% | did not exert these effects
CC(N)Cc1ccccc1 (stereo not shown) [amphetamine] |  |  |  |  |  |  |  |  |  |  |  |  |  |  | without effect
